Experimental findings from article PMC6024778 (Viruses, 2018) are described below.

One may read the EC50 as the midpoint of the concentration-response curve. A lower EC50 goes with a more potent agent.

In this assay the test system is rMERS-CoV-S2. Format: cell-based, MERS-CoV.

In turn, `CN1CCN(CCOc2cc(OC3CCOCC3)c3c(Nc4c(Cl)ccc5c4OCO5)ncnc3c2)CC1` [Saracatinib] registered an EC50 of 9 µM.
